Assay results from patent publication US20250228239A1, “MOLECULES HAVING PESTICIDAL UTILITY, AND INTERMEDIATES, COMPOSITIONS, AND PROCESSES, RELATED THERETO” (priority 2024, published 2025).
Where two headings read alike, the source gives them in different places.

Experiments:
[1] = system: Beet Armyworm (Spodoptera exigua, LAPHEG); assay: Bioassays on Beet Armyworm (BAW), 128-well diet tray assay; assay type: in vivo; details: Spodoptera exigua
Summary of the method: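 Percent larval mortality, averaged across eight wells, scored after five to seven days at 25° C. under 14:10 light-dark. Each well held one to five second instars feeding on diet dosed at 50 μg/cm^2 with compound from 90:10 acetone-water, solvent dried off.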

[2] = system: Cabbage Looper (Trichoplusia ni, TRIPNI); assay: Bioassays on Cabbage Looper (CL), 128-well diet tray assay; assay type: in vivo; details: Trichoplusia ni
Summary of the method: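 Test molecule was dissolved in 90:10 acetone-water, applied to artificial diet at 50 μg/cm^2 and allowed to dry. Second-instar larvae were then added, one to five per well, and trays held at 25° C for five to seven days before mortality was scored and averaged.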

[3] = Beet Armyworm, rating class, read-out: BAW
[4] = Cabbage Looper, rating class, read-out: CL
[5] = Table ABC: Biological Results, species BAW, read-out: BAW
[6] = Table ABC: Biological Results, species CL, read-out: CL
[7] = Beet Armyworm, Table ABC / ABC-DP rating, read-out: BAW rating
[8] = Cabbage Looper, Table ABC / ABC-DP rating, read-out: CL rating

| SMILES | pest or weed control at 50 µg/cm2 [1, 3] | pest or weed control at 50 µg/cm2 [2, 4] | pest or weed control at 50 µg/cm2 [1, 5] | pest or weed control at 50 µg/cm2 [2, 6] | also measured |
| --- | --- | --- | --- | --- | --- |
| CC(=O)Nc1cc(NC(=O)c2cc(NC(=O)[C@H]3[C@H](c4ccc(F)c(C(F)(F)F)c4)C3(Cl)Cl)cc(F)c2F)c(F)cc1F [F1587, N-(5-Acetamido-2,4-difluorophenyl)-5-((1R,3R)-2,2-dichloro-3-(4-fluoro-3-(trifluoromethyl)phenyl)cyclopropane-1-carboxamido)-2,3-difluorobenzamide] | 50 to 100% | 50 to 100% | – | – | – |
| Nc1c(F)ccc(NC(=O)c2cc(NC(=O)[C@H]3[C@H](c4cc(Cl)cc(Cl)c4)C3(Cl)Cl)cc(F)c2Cl)c1F [F1324, N-(3-Amino-2,4-difluorophenyl)-2-chloro-5-((1R,3R)-2,2-dichloro-3-(3,5-dichlorophenyl)cyclopropane-1-carboxamido)-3-fluorobenzamide] | – | – | 50 to 100% | 50 to 100% | – |
| CC(=O)Nc1ccc(NC(=O)c2c(F)ccc(NC(=O)[C@H]3[C@H](c4ccc(F)c(Cl)c4)C3(Cl)Cl)c2F)cc1 (relative stereo) [F1101, trans-N-(4-Acetamidophenyl)-3-(2,2-dichloro-3-(3-chloro-4-fluorophenyl)cyclopropane-1-carboxamido)-2,6-difluorobenzamide] | – | – | 50 to 100% | 50 to 100% | – |
| Cc1c(Cl)cc(NC(=O)[C@H]2[C@H](c3ccc(F)c(Cl)c3)C2(Cl)Cl)cc1C(=O)Nc1ccc(F)c(N)c1F (relative stereo) [F1223, trans-N-(3-Amino-2,4-difluorophenyl)-3-chloro-5-(2,2-dichloro-3-(3-chloro-4-fluorophenyl)cyclopropane-1-carboxamido)-2-methylbenzamide] | – | – | 50 to 100% | 50 to 100% | – |
| CCC(C#N)C(=O)Nc1c(F)ccc(NC(=O)c2cc(NC(=O)[C@H]3[C@H](c4ccc(F)c(C(F)(F)F)c4)C3(Cl)Cl)ccc2Cl)c1F (stereo partly drawn) [F1756, 2-Chloro-N-(3-(2-cyanobutanamido)-2,4-difluorophenyl)-5-((1R,3R)-2,2-dichloro-3-(4-fluoro-3-(trifluoromethyl)phenyl)cyclopropane-1-carboxamido)benzamide] | 50 to 100% | 50 to 100% | – | – | – |
| Cc1ccc(NNC(=O)c2cc(NC(=O)[C@H]3[C@H](c4cc(Cl)cc(Cl)c4)C3(Cl)Cl)ccc2Cl)cc1 (relative stereo) [F2575, trans-2,2-Dichloro-N-(4-chloro-3-(2-(p-tolyl)hydrazine-1-carbonyl)phenyl)-3-(3,5-dichlorophenyl)cyclopropane-1-carboxamide] | – | – | – | – | mortality at 50 µg/cm2 ([1]; 168 h, second instar larvae, 50 μg/cm^2 of test molecule on artificial diet, 25° C., five to seven days, average of eight wells, read-out: BAW % Control (or Mortality) rating): 50 to 100%; pest or weed control at 50 µg/cm2 [1, 7]: 50 to 100%; mortality at 50 µg/cm2 ([2]; 168 h, second instar larvae, 50 μg/cm^2 of test molecule on artificial diet, 25° C., five to seven days, average of eight wells, read-out: CL % Control (or Mortality) rating): 50 to 100%; pest or weed control at 50 µg/cm2 [2, 8]: 50 to 100% |
| CC(=O)Nc1c(F)ccc(NC(=O)c2cc(NC(=O)[C@H]3[C@H](c4cc(Cl)c(Cl)c(Cl)c4)C3(Cl)Cl)cc(F)c2F)c1F [F1433, N-(3-Acetamido-2,4-difluorophenyl)-5-((1R,3R)-2,2-dichloro-3-(3,4,5-trichlorophenyl)cyclopropane-1-carboxamido)-2,3-difluorobenzamide] | 50 to 100% | 50 to 100% | – | – | – |
| Nc1c(F)ccc(NC(=O)c2cc(NC(=O)[C@H]3[C@H](c4ccc(F)c(Cl)c4)C3(Cl)Cl)cc(C(F)(F)F)c2Cl)c1F (relative stereo) [F1225, trans-N-(3-Amino-2,4-difluorophenyl)-2-chloro-5-(2,2-dichloro-3-(3-chloro-4-fluorophenyl)cyclopropane-1-carboxamido)-3-(trifluoromethyl)benzamide] | – | – | 50 to 100% | 50 to 100% | – |
| O=C(Nc1c(F)ccc(NC(=O)C(F)F)c1F)c1cc(NC(=O)[C@H]2[C@H](c3cc(Cl)cc(Cl)c3)C2(Cl)Cl)cc(F)c1Cl [F1341, 2-Chloro-5-((1R,3R)-2,2-dichloro-3-(3,5-dichlorophenyl)cyclopropane-1-carboxamido)-N-(3-(2,2-difluoroacetamido)-2,6-difluorophenyl)-3-fluorobenzamide] | – | – | 50 to 100% | 50 to 100% | – |
| Cc1cc(NC(=O)[C@H]2[C@H](c3cc(Cl)c(Cl)c(Cl)c3)C2(Cl)Cl)cc(C(=O)Nc2ccc(F)c(NC(=O)C(F)(F)F)c2F)c1Cl [F1487, 2-Chloro-5-((1R,3R)-2,2-dichloro-3-(3,4,5-trichlorophenyl)cyclopropane-1-carboxamido)-N-(2,4-difluoro-3-(2,2,2-trifluoroacetamido)phenyl)-3-methylbenzamide] | 50 to 100% | 50 to 100% | – | – | – |
| O=C(NNc1ccc(Cl)c(C(F)(F)F)c1)c1cc(NC(=O)[C@H]2[C@H](c3cc(Cl)cc(Cl)c3)C2(Cl)Cl)ccc1Cl (relative stereo) [F2501, trans-2,2-dichloro-N-(4-chloro-3-(2-(4-chloro-3-(trifluoromethyl)phenyl)hydrazine-1-carbonyl)phenyl)-3-(3,5-dichlorophenyl)cyclopropane-1-carboxamide] | – | – | – | – | pest or weed control at 50 µg/cm2 [1, 7]: 50 to 100%; pest or weed control at 50 µg/cm2 [2, 8]: 50 to 100% |
| O=C(Nc1cc(NC(=O)C(F)(F)F)c(F)cc1F)c1cc(NC(=O)[C@H]2[C@H](c3cc(Cl)c(Cl)c(Cl)c3)C2(Cl)Cl)cc(F)c1Cl [F1405, 2-Chloro-5-((1R,3R)-2,2-dichloro-3-(3,4,5-trichlorophenyl)cyclopropane-1-carboxamido)-N-(2,4-difluoro-5-(2,2,2-trifluoroacetamido)phenyl)-3-fluorobenzamide] | 50 to 100% | 50 to 100% | – | – | – |
| O=C(Nc1cc(NC(=O)C(F)(F)F)c(F)cc1F)c1cc(NC(=O)[C@H]2[C@H](c3ccc(F)c(C(F)(F)F)c3)C2(Cl)Cl)cc(F)c1F [F1584, 5-((1R,3R)-2,2-Dichloro-3-(4-fluoro-3-(trifluoromethyl)phenyl)cyclopropane-1-carboxamido)-N-(2,4-difluoro-5-(2,2,2-trifluoroacetamido)phenyl)-2,3-difluorobenzamide] | 50 to 100% | 50 to 100% | – | – | – |
| Nc1c(F)ccc(NC(=O)c2cc(NC(=O)[C@H]3[C@H](c4cc(Cl)cc(Cl)c4)C3(F)F)ccc2Cl)c1F (relative stereo) [F1080, trans-N-(3-Amino-2,4-difluorophenyl)-2-chloro-5-(3-(3,5-dichlorophenyl)-2,2-difluorocyclopropane-1-carboxamido)benzamide] | – | – | 50 to 100% | 50 to 100% | – |
| O=C(Nc1cc(NC(=O)C(F)(F)C(F)F)c(F)cc1F)c1cc(NC(=O)[C@H]2[C@H](c3ccc(F)c(C(F)(F)F)c3)C2(Cl)Cl)ccc1Cl [F1569, 2-Chloro-5-((1R,3R)-2,2-dichloro-3-(4-fluoro-3-(trifluoromethyl)phenyl)cyclopropane-1-carboxamido)-N-(2,4-difluoro-5-(2,2,3,3-tetrafluoropropanamido)phenyl)benzamide] | 50 to 100% | 50 to 100% | – | – | – |
| O=C(Nc1c(F)cc(F)cc1F)c1cc(NC(=O)[C@@H]2[C@@H](c3cc(Cl)cc(Cl)c3)C2(Cl)Cl)ccc1Cl (single isomer, unassigned) [F1378] | – | – | 0 to 50% | 50 to 100% | – |
| O=C(CC(F)(F)F)Nc1c(F)ccc(NC(=O)c2cc(NC(=O)[C@H]3[C@H](c4ccc(F)c(Br)c4)C3(Cl)Cl)ccc2Cl)c1F [F1718, 5-((1R,3R)-3-(3-Bromo-4-fluorophenyl)-2,2-dichlorocyclopropane-1-carboxamido)-2-chloro-N-(2,4-difluoro-3-(3,3,3-trifluoropropanamido)phenyl)benzamide] | 50 to 100% | 50 to 100% | – | – | – |
| Cc1cc(NC(=O)[C@H]2[C@H](c3cc(Cl)c(Cl)c(Cl)c3)C2(Cl)Cl)cc(C(=O)Nc2c(F)ccc(NC(=O)C(F)(F)F)c2F)c1Cl [F1432, 2-Chloro-5-((1R,3R)-2,2-dichloro-3-(3,4,5-trichlorophenyl)cyclopropane-1-carboxamido)-N-(2,6-difluoro-3-(2,2,2-trifluoroacetamido)phenyl)-3-methylbenzamide] | 50 to 100% | 50 to 100% | – | – | – |
| Cc1cc(NC(=O)c2cc(NC(=O)[C@H]3[C@H](c4cc(Cl)cc(Cl)c4)C3(Cl)Cl)ccc2Cl)c(C)cc1N (relative stereo) [F1257, trans-N-(4-Amino-2,5-dimethylphenyl)-2-chloro-5-(2,2-dichloro-3-(3,5-dichlorophenyl)cyclopropane-1-carboxamido)benzamide] | – | – | 50 to 100% | 50 to 100% | – |
| O=C(Nc1ccc(F)c(NC(=O)C(F)F)c1F)c1cc(NC(=O)[C@H]2[C@H](c3cc(Cl)cc(Cl)c3)C2(Cl)Cl)ccc1Cl [F1268, 2-Chloro-5-((1R,3R)-2,2-dichloro-3-(3,5-dichlorophenyl)cyclopropane-1-carboxamido)-N-(3-(2,2-difluoroacetamido)-2,4-difluorophenyl)benzamide] | – | – | 50 to 100% | 50 to 100% | – |
| O=C(Nc1cc(F)cc(NC(=O)C(F)(F)F)c1)c1cc(NC(=O)[C@H]2[C@H](c3cc(Cl)cc(Cl)c3)C2(Cl)Cl)ccc1Cl (relative stereo) [F1639, trans-2-Chloro-5-(2,2-dichloro-3-(3,5-dichlorophenyl)cyclopropane-1-carboxamido)-N-(3-fluoro-5-(2,2,2-trifluoroacetamido)phenyl)benzamide] | 50 to 100% | 50 to 100% | – | – | – |
